# Results as given in publication PMC4081560 (PLoS ONE, 2014).
# Test system: tested viruses (K/09, rK09/NA:Y275, K/2785)
# Type: cell-based, 2009 pandemic H1N1 virus
# Details: read-out: concentration sufficient to restrict viral replication (EC50)
smiles,measurement,value
"NC(=O)c1nc(F)cnc1O [Favipiravir, 6-fluoro-3-hydroxy-2-pyrazinecarboxamide]",EC50,8.39 to 14.7 µM
